# Assay results as given in US10723778B2, “Variants of adrenomedullin and calcitonin gene-related peptide and methods of use” (The Board of Regents of the University of Oklahoma, priority 2015, dated 2020).
# Where no end group is shown, it is not given here.
# Tests used:
# [1] = target: T1, RAMP1-CLR ECD (CGRP); purified MBP-RAMP1 ECD-(GS)5-CLR ECD-H6 fusion protein (Homo sapiens, UniProt O60894+Q16602); assay: Fluorescence polarization (FP) peptide binding competition assay, CGRP receptor ECD complex; conditions: for Receptor Selectivity (in words): CGRP vs AM1 receptor ECD complexes; for Receptor Selectivity (in words) / Receptor Selectivity, fold for CGRP: FP assay; for Ki: RAMP1-CLR ECD (CGRP) KI (nM), FP competition, FITC-AM W/W probe 7 nM, fusion protein 15 nM; for Receptor Selectivity, fold for CGRP: CGRP (RAMP1-CLR ECD) over AM1 (RAMP2-CLR ECD)
# T1 construct: MBP-hRAMP1.24-111-(Gly-Ser)5-hCLR.29-144-H6; made in house; host or cells: E. coli
# Procedure: Fluorescence polarization peptide binding assay. […] The reactions (50 μL) were incubated for 2 hours at room temperature to reach equilibrium, and the anisotropy was measured in black half-area 96-well plates using a BMG LABTECH's POLARstar® Omega plate reader (Ortenberg, Germany). The reaction buffer was 50 mM HEPES, pH 7.5, 150 mM NaCl, 0.5 mg/ml fatty acid-free BSA, 0.5 mM EDTA, 0.5 mM maltose. Ki values were calculated using nonlinear regression fitting of the competition curves to the exact analytical equations of Roehrl et al. (Biochemistry (2004) 43:16056-66) using GraphPad Prism 5.0 (GraphPad Software, San Diego Calif.).
# (§1) The ability of the indicated peptides to displace a FITC-Ahx-AM(37-52)NH2 [S45W, Q50W] probe (7 nM) from purified MBP-RAMP1 ECD-(GS)5-CLR ECD-H6 fusion protein (15 nM) was assessed by fluorescence polarization (anisotropy). The reactions were incubated for 2 hours at room temperature to reach equilibrium, and the anisotropy was measured in black half-area 96-well plates using a BMG LABTECH's POLARstar® Omega plate reader (Ortenberg, Germany). The reaction buffer was 50 mM HEPES, pH 7.5, 150 mM NaCl, 0.5 mg/ml fatty acid-free BSA, 0.5 mM EDTA, 0.5 mM maltose. KI values were calculated using nonlinear regression fitting of the competition curves to the exact analytical equations of Roehrl et al. (Biochemistry (2004) 43:16056-66) using GraphPad Prism 5.0 (GraphPad Software, San Diego Calif.).
# as §1, with “Single representative experiments conducted with duplicate samples are shown. Error bars are S.E.M. The ability” for “The ability”, “displace a FITC-Ahx-AM(37-52)NH2[S45W, Q50W] probe” for “displace a FITC-Ahx-AM(37-52)NH2 [S45W, Q50W] probe”
# A fluorescence polarization/anisotropy (FP) peptide-binding assay was developed using N-terminally FITC-labeled AM(37-52) S45W/Q50W as the probe, hereafter “FITC-AM W/W.” The probe was custom synthesized and HPLC-purified by RS Synthesis. The large size difference between the MBP-RAMP ECD-CLR ECD fusion proteins (˜65 kDa) and the probe (˜2.5 kDa) ensures a significant anisotropy difference between bound and free states of the probe. […] Kd values for the probe at each of the tethered ECD fusion proteins were determined in equilibrium saturation binding experiments (data not shown), and KI values were determined for unlabeled peptides in equilibrium competition experiments (Table 1; FIGS. 2-5). The data were analyzed according to exact analytical equations using non-linear regression curve fitting in GraphPad Prism 5.0 (GraphPad Software) via user-defined equations.
# [2] = target: T2, RAMP2-CLR ECD (Homo sapiens, UniProt O60895+Q16602, L106R); assay: AlphaLISA/AlphaScreen competition peptide binding assay, AM1 receptor ECD complex
# T2 construct: MBP-hRAMP2.55-140 [L106R]-(Gly-Ser-Ala)3-hCLR.29-144-H6; made in house; host or cells: E. coli
# Procedure: Protein production and characterization and peptides. Plasmid construction, mutagenesis, protein expression, purification, and the AlphaScreen® peptide binding assay (Perkin-Elmer, Waltham, Mass.) were performed as previously described with minor modifications to the AlphaScreen® assay (Hill and Pioszak, Protein expression and purification (2013) 88:107-113; and Moad and Pioszak, Protein Sci. (2013) 22:1775-85). Synthetic peptides were from RS Synthesis (Louisville, Ky.), Bachem (Bubendorf, Switzerland), or were synthesized in-house. […]
# FIG. 1 depicts in (B) binding of an AM C-terminal peptide, AM(37-52)NH2, and the two variant AM C-terminal peptides to purified AM1 receptor extracellular domain complex (CLR:RAMP2). The ability of the indicated peptides to displace a Biotin-CGRP probe (50 nM) from purified MBP-RAMP1 ECD-(GS)5-CTR ECD-H6 fusion protein (5 nM) or a Biotin-AM probe (25 nM) from purified MBP-RAMP2 ECD [L106R]-(GS)5-[…] ECD-H6 fusion protein (5 nM) was assessed by AlphaLISA® luminescent peptide binding assay (Perkin-Elmer, Waltham, Mass.). […] The reactions were incubated for 5 hours at room temperature to reach equilibrium, and the luminescence was measured in white 384-well plates using a BMG LABTECH's POLARstar Omega plate reader (Ortenberg, Germany). […]
# [3] = target: T3, membranes of SK-N-MC cells, which express the CGRP receptor (Homo sapiens, UniProt O60894+Q16602); conditions: read-out: IC50 reported for binding to membranes of SK-N-MC cells; cited from earlier work
# T3 construct: membranes of SK-N-MC cells, which express the CGRP receptor; host or cells: SK-N-MC cell membranes (endogenous receptor)
# [4] = target: T4, AMY1 receptor extracellular domain complex; purified MBP-RAMP1 ECD-(GS)5-CTR ECD-H6 fusion protein (Homo sapiens, UniProt O60894+P30988); assay: AlphaLISA luminescent peptide binding assay, AMY1 receptor ECD complex; conditions: displacement of Biotin-AC413 probe (100 nM), fusion protein 200 nM
# T4 construct: purified MBP-RAMP1 ECD-(GS)5-CTR ECD-H6 fusion protein (200 nM); made in house; host or cells: HEK293T
# Procedure: A single representative experiment conducted with duplicate samples is shown. Error bars are S.E.M. The ability of the indicated peptides to displace a Biotin-AC413 probe (100 nM) from purified MBP-RAMP1 ECD-(GS)5-CTR ECD-H6 fusion protein (200 nM) was assessed by AlphaLISA® luminescent peptide binding assay (Perkin-Elmer, Waltham, Mass.) as described in Lee et al. (J Biol. Chem (2016) 291:8686-8700). The reactions were incubated for 5 hours at room temperature to reach equilibrium, and the luminescence was measured in white 384-well plates using a BMG LABTECH's POLARstar® Omega plate reader (Ortenberg, Germany). The reaction buffer was 50 mM MOPS, pH 7.4, 150 mM NaCl, 7 mg/ml fatty acid-free BSA and the streptavidin-coated donor beads and MBP-antibody coated acceptor beads were at 15 μg/ml each. IC50 values were calculated using nonlinear regression fitting of the competition curves to a three-parameter, one-site competitive binding equation in GraphPad Prism 5.0 (GraphPad Software, San Diego Calif.).
# [5] = target: T5, full-length CGRP (RAMP1:CLR) receptor transiently expressed in COS-7 cells (Homo sapiens, UniProt O60894+Q16602); assay: Antagonism of CGRP-activated cAMP signaling in COS-7 cells; type: cell-based
# T5 construct: Plasmids for expression of tagged full-length CLR and RAMP1 or RAMP2 receptors in mammalian cells were previously described; expressed in transfected cells; host or cells: COS-7
# Procedure: (§2) Cell-based assays. Transfection of COS-7 cells, cAMP assay, ELISA for cell surface expression, and data analysis were as previously described (Barwell et al., Peptides (2010) 31:170-176; Watkins et al., Br J Pharmacol (2014) 171:772-788).
# (§3) A single representative experiment conducted with duplicate samples is shown. Error bars are S.E.M. The experiments were performed as described in Lee et al. (J Biol. Chem (2016) 291:8686-8700). […] (B) depicts antagonism of AM-activated cAMP signaling at the AM1 receptor.
# (§4) Forty-eight hours after transfection, the cells were pre-incubated for 30 minutes in the absence or presence of 500 nM AM(37-52)NH2 [S45W/K46L/Q50W/Y52F], and then stimulated for 15 minutes with increasing concentrations of agonist peptide in the absence or presence of 500 nM antagonist. The cells were lysed, and cAMP was quantitated using a LANCE TR-FRET cAMP kit (Perkin-Elmer Waltham, Mass.).
# [6] = target: T6, full-length AM1 (RAMP2:CLR) receptor transiently expressed in COS-7 cells (Homo sapiens, UniProt O60895+Q16602); assay: Antagonism of AM-activated cAMP signaling in COS-7 cells; type: cell-based; conditions: 500 nM antagonist
# T6 construct: Plasmids for expression of tagged full-length CLR and RAMP1 or RAMP2 receptors in mammalian cells were previously described; expressed in transfected cells; host or cells: COS-7
# Procedure: as §2, §3, §4
compound,measurement,setting,value
DKDNVAPRSKISPWGY-NH2 [Peptide Q50W],Receptor Selectivity (in words),[1],Non-selective
same,Ki,[1],501 nM
same,fold increased affinity for RAMP2-CLR ECD,"[2]; competition assays, relative to AM(37-52)NH2",~100 fold
"DKDNVAPRSKISPQGY-NH2 [WT, reference compound]",Receptor Selectivity (in words),[1],AM1 over CGRP
same,Ki,[1],> 100000 nM
same,IC50,"[2]; read-out: IC50 in AlphaLISA or AlphaScreen competition assays, RAMP2-CLR ECD",5000 to 15000 nM
CC(C)[C@H](NC(=O)[C@H](CC(=O)O)NC(=O)[C@@H](NC(=O)[C@@H]1CCCN1C(=O)[C@@H](NC(=O)[C@@H](N)Cc1ccccc1)C(C)C)[C@@H](C)O)C(=O)NCC(=O)N1CCC[C@H]1C(=O)N[C@@H](Cc1ccccc1)C(=O)N[C@@H](C)C(=O)N[C@@H](Cc1ccccc1)C(N)=O [CGRPmut [N31D/S34P/K35F]],IC50,[3],29 nM
DKDNVAPRWLISPWGF-NH2 [S45W/K46L/Q50W/Y52F],"Receptor Selectivity, fold for CGRP",[1],2131-fold for CGRP
same,"Receptor Selectivity, fold for CGRP",[1]; listed as AM(37-52)NH2 [S45W/K46L/Q50W/Y52F],> 2000 fold
same,Ki,[1],1.91 nM
same,IC50,[4],16000 nM
same,Kb,[5],10.5 nM
same,"pA2, antagonism of CGRP-activated cAMP signaling at the CGRP receptor","[5]; 500 nM antagonist, COS-7 cells, Gaddum/Schild EC50 shift, slopes constrained to 1",~8
same,affinity for the intact CGRP receptor suggested by pA2,[5]; COS-7 cells,~10 nM
same,antagonism of the AM1 receptor (cAMP),[6],did not antagonize the AM1 receptor
